pIC50: −log10 of the molar value. Where two headings read alike, the source gives them in different places.
Tests used:
CYP2C9 = CYP2C9 (Homo sapiens (Human), UniProt P11712); assay: CYP enzyme inhibition, fluorescent substrate (MFC)
Method in brief: (§1)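 Human CYP activity was followed by the fluorescence of the metabolized product of a known substrate, which falls as metabolism is inhibited. Compounds from 100 mM DMSO stocks were serially diluted 1:1 over 10 points in co-factor mix and preincubated 10 min at 37 °C. IC50 was fitted from signal versus concentration.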

CYP1A2 = CYP1A2 (Homo sapiens (Human), UniProt P05177); assay: CYP enzyme inhibition, fluorescent substrate (CEC)
Method in brief: (§2)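 Ten-point 1:1 compound dilutions in NADPH-regenerating cofactor mix, pre-incubated 10 min at 37 °C before enzyme/substrate addition: CYP1A2 0.5 pmol with 5 μM CEC, 15 min, 409 ex/460 em; CYP2D6 1.5 pmol with 1.5 μM AMMC, 30 min, 409 ex/530 em. IC50 from fluorescent product vs concentration.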

[1] = Relative solubility by turbidity threshold concentration in aqueous buffers (pH 1.5, 4.5, 6.8, 7.4); assay type: physicochemical; settings: for turbidity threshold (L, M, H) 1.4: pH 1.4 [sic] (method: SGF pH 1.5); for turbidity threshold (L, M, H) 4.5: pH 4.5 (SIF); for turbidity threshold (L, M, H) 6.8: pH 6.8 (SIF); for turbidity threshold (L, M, H) 7.4: pH 7.4 (HEPES)
Method in brief: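 Solubility class (high >250 μM, moderate 31.3–250 μM, low <31.3 μM) comes from the concentration where absorbance reaches a 0.01 threshold, averaged across 490/535/650 nm. Samples were compound dilutions from DMSO stock, 1 μL into 99 μL buffer at pH 1.5, 4.5, 6.8 or 7.4.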

CYP3A4(BQ) = CYP3A4(BQ) (Homo sapiens (Human), UniProt P08684); assay: CYP enzyme inhibition, fluorescent substrate BQ
Protocol: CYP (Cytochrome P450) enzymes are the major drug metabolizing enzymes present in the liver. The inhibition of CYP enzyme activity (IC50) for each of CYP1A2, CYP2C19, CYP2C9, CYP2D6, CYP3A4(BFC) and CYP3A4(BQ) is determined for compounds, where inhibition of metabolism of a known substrate leads to a decrease in the fluorescence of the metabolized product. The fluorescence of the product is monitored as a function of compound concentration.
Compounds are dissolved in dimethyl sulfoxide to a concentration of 100 mM. These are diluted 1 μL into 82 μL of acetonitrile. […] These are then serially diluted 1:1 (160 μL to 160 μL co-factor mix) for a total of 10 points. A 10 μL aliquot of this final mixture is dispensed into 384 well assay plates and incubated for 10 minutes at 37° C. […] Assay plates are incubated at 37° C. […] The signal versus compound concentration is used to determine the IC50. The enzymes and substrates for this assay are obtained from BD Biosciences.

CYP2C19 = CYP2C19 (Homo sapiens (Human), UniProt P33261); assay: CYP enzyme inhibition, fluorescent substrate (CEC); settings: read-out: Cyp IC50 2C19; CYP2C19, substrate CEC
Method in brief: as §1

CYP2D6 = CYP2D6 (Homo sapiens (Human), UniProt P10635); assay: CYP enzyme inhibition, fluorescent substrate (AMMC); assay type: in vitro ADME; settings: read-out: Cyp IC50 2D6
Method in brief: as §2

CYP3A4(BFC) = CYP3A4(BFC) (Homo sapiens (Human), UniProt P08684); assay: CYP enzyme inhibition, fluorescent substrate BFC; settings: read-out: Cyp IC50 3A4(BFC); CYP3A4, substrate BFC
Method in brief: as §1

[2] = read-out: Cyp IC50 2C9, CYP2C9, substrate MFC
[3] = read-out: Cyp IC50 3A4(BQ), CYP3A4, substrate BQ

Sequence of CYP3A4(BFC) (P08684 whole entry): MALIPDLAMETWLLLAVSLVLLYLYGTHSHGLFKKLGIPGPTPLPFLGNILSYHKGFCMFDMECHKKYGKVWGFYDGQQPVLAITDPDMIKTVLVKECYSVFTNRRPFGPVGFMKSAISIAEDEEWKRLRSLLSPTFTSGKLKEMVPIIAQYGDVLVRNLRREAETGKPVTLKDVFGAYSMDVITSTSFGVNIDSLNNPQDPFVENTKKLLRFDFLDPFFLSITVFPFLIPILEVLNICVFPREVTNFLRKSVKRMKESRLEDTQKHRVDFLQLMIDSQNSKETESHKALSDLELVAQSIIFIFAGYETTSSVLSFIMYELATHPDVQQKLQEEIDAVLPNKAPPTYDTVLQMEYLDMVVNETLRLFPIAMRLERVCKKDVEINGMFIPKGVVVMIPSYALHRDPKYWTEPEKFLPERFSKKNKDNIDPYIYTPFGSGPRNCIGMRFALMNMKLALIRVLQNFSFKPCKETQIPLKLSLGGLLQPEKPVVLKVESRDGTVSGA
Sequence of CYP3A4(BQ) (P08684 whole entry): as above
Sequence of CYP2D6 (P10635 whole entry): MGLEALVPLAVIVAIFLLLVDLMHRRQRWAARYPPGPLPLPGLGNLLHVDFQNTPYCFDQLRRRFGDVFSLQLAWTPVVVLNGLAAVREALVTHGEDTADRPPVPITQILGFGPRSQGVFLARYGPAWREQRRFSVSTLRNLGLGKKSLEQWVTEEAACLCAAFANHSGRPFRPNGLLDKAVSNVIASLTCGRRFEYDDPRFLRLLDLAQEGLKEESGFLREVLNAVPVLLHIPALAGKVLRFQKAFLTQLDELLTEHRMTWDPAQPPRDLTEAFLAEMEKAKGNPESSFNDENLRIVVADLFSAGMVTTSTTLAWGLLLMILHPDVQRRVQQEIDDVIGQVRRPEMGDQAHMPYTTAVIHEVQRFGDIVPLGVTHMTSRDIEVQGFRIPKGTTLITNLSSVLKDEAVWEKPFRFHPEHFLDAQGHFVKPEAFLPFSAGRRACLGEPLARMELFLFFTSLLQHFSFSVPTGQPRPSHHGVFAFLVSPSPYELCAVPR
Sequence of CYP2C9 (P11712 whole entry): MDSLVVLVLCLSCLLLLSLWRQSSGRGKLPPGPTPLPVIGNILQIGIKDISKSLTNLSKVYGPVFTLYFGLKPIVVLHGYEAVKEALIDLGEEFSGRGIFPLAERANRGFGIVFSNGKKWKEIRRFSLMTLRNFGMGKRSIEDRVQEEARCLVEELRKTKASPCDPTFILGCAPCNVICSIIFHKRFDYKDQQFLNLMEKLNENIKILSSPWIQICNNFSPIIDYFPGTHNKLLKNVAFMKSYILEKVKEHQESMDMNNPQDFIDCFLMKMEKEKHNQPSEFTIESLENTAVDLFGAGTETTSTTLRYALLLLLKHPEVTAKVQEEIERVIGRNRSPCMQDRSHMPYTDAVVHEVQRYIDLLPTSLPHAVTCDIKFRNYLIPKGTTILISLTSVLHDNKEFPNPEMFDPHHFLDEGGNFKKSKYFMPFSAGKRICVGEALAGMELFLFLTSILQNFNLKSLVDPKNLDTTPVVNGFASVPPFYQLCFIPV
Sequence of CYP2C19 (P33261 whole entry): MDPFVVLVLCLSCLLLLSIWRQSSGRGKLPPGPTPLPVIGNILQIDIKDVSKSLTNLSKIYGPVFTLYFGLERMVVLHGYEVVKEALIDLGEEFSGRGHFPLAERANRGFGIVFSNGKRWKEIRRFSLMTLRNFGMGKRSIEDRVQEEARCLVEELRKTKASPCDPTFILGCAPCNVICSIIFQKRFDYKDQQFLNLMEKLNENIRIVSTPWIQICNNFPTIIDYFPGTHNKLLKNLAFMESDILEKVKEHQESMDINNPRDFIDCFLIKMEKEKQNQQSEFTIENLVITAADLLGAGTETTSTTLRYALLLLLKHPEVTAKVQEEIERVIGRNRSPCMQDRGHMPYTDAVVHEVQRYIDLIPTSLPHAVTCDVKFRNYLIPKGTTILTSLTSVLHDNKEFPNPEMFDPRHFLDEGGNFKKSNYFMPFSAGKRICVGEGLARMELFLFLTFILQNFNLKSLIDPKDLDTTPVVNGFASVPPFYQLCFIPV
Sequence of CYP1A2 (P05177 whole entry): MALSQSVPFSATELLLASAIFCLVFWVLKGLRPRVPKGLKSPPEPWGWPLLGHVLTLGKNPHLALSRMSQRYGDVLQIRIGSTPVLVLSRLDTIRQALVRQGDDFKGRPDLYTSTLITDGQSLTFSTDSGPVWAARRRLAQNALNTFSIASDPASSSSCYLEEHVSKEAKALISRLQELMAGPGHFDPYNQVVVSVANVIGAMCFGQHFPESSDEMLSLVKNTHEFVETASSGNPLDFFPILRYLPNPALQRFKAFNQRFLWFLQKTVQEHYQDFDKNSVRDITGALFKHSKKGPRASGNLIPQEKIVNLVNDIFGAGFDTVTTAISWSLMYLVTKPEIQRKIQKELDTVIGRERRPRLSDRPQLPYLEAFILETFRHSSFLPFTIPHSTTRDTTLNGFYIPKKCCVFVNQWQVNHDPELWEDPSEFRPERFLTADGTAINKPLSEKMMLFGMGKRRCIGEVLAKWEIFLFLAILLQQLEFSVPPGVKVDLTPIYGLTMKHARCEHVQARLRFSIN

SMILES	pIC50 (CYP2C9; [2])	pIC50 (CYP3A4(BQ); [3])	pIC50 (CYP2C19)	pIC50 (CYP2D6)	pIC50 (CYP3A4(BFC))	pIC50 (CYP1A2; human, 15 min)	pIC50 (CYP3A4(BQ))	pIC50 (CYP2C9)	pIC50 (CYP1A2; read-out: Cyp IC50 1A2, CYP1A2, substrate CEC)	turbidity threshold (L, M, H) 1.4 [1]	turbidity threshold (L, M, H) 4.5 [1]	turbidity threshold (L, M, H) 6.8 [1]	turbidity threshold (L, M, H) 7.4 [1]
CC(C)Nc1ncnc2[nH]cc(C(=O)c3c(F)ccc(NS(=O)(=O)c4ccccc4F)c3F)c12 [P-1073, N-[2,4-Difluoro-3-(4-isopropylamino-7H-pyrrolo[2,3-d]pyrimidine-5-carbonyl)-phenyl]-2-fluoro-benzenesulfonamide]	< 5.00	< 5.00	< 5.00	< 5.00	< 5.00				< 5.00	M (moderate solubility if the threshold concentration is 31.3 μM to 250 μM)	L (low solubility if the threshold concentration is <31.3 μM)	L (low solubility if the threshold concentration is <31.3 μM)	L (low solubility if the threshold concentration is <31.3 μM)
CC(C)Nc1ncnc2[nH]cc(C(=O)c3c(F)ccc(NS(=O)(=O)c4cc(F)ccc4F)c3F)c12 [P-1111, N-[2,4-Difluoro-3-(4-isopropylamino-7H-pyrrolo[2,3-d]pyrimidine-5-carbonyl)-phenyl]-2,5-difluoro-benzenesulfonamide]		< 5.00	< 5.00	< 5.00	< 5.00	< 5.00		5.00 to 5.30					
O=C(c1c(F)ccc(NS(=O)(=O)c2cc(F)ccc2F)c1F)c1c[nH]c2ncnc(NCC3CC3)c12 [P-1137, N-{3-[4-(Cyclopropylmethyl-amino)-7H-pyrrolo[2,3-d]pyrimidine-5-carbonyl]-2,4-difluoro-phenyl}-2,5-difluoro-benzenesulfonamide]	< 5.00	< 5.00	< 5.00	< 5.00	< 5.00	< 5.00							
COc1cccc(Nc2ncnc3[nH]cc(C(=O)c4c(F)ccc(NS(=O)(=O)c5cc(F)ccc5F)c4F)c23)c1 [P-1139, N-{2,4-Difluoro-3-[4-(3-methoxy-phenylamino)-7H-pyrrolo[2,3-d]pyrimidine-5-carbonyl]-phenyl}-2,5-difluoro-benzenesulfonamide]	< 5.00	< 5.00	< 5.00	< 5.00	< 5.00	< 5.00							
CCn1cc(Nc2ncnc3[nH]cc(C(=O)c4c(F)ccc(NS(=O)(=O)c5cc(F)ccc5F)c4F)c23)cn1 [P-1142, N-{3-[4-(1-Ethyl-1H-pyrazol-4-ylamino)-7H-pyrrolo[2,3-d]pyrimidine-5-carbonyl]-2,4-difluoro-phenyl}-2,5-difluoro-benzenesulfonamide]	< 5.00	< 5.00	< 5.00	< 5.00	< 5.00	< 5.00							
COc1cccc(Nc2ncnc3[nH]cc(C(=O)c4c(F)ccc(NS(=O)(=O)c5ccccc5F)c4F)c23)c1 [P-1149, N-{2,4-Difluoro-3-[4-(3-methoxy-phenylamino)-7H-pyrrolo[2,3-d]pyrimidine-5-carbonyl]-phenyl}-2-fluoro-benzenesulfonamide]	< 5.00	< 5.00	< 5.00	< 5.00	< 5.00	< 5.00							
COCCNc1ncnc2[nH]cc(C(=O)c3c(F)ccc(NS(=O)(=O)c4ccccc4F)c3F)c12 [P-1150, N-{2,4-Difluoro-3-[4-(2-methoxy-ethylamino)-7H-pyrrolo[2,3-d]pyrimidine-5-carbonyl]-phenyl}-2-fluoro-benzenesulfonamide]	< 5.00	< 5.00	< 5.00	< 5.00	< 5.00	< 5.00							
CCn1cc(Nc2ncnc3[nH]cc(C(=O)c4c(F)ccc(NS(=O)(=O)c5ccccc5F)c4F)c23)cn1 [P-1153, N-{3-[4-(1-Ethyl-1H-pyrazol-4-ylamino)-7H-pyrrolo[2,3-d]pyrimidine-5-carbonyl]-2,4-difluoro-phenyl}-2-fluoro-benzenesulfonamide]	< 5.00	< 5.00	< 5.00	< 5.00	< 5.00	< 5.00							

More lines, main results first:

pIC50 (CYP2C9; [2])	pIC50 (CYP3A4(BQ); [3])	pIC50 (CYP2C19)	pIC50 (CYP2D6)	pIC50 (CYP3A4(BFC))	pIC50 (CYP1A2; human, 15 min)	pIC50 (CYP3A4(BQ))	pIC50 (CYP2C9)	SMILES	pIC50 (CYP1A2; read-out: Cyp IC50 1A2, CYP1A2, substrate CEC)	turbidity threshold (L, M, H) 1.4 [1]	turbidity threshold (L, M, H) 4.5 [1]	turbidity threshold (L, M, H) 6.8 [1]	turbidity threshold (L, M, H) 7.4 [1]
< 5.00	< 5.00	< 5.00	< 5.00	< 5.00	< 5.00			CCCS(=O)(=O)Nc1ccc(F)c(C(=O)c2c[nH]c3ncnc(NCc4ccccc4)c23)c1F [P-1074, Propane-1-sulfonic acid [3-(4-benzylamino-7H-pyrrolo[2,3-d]pyrimidine-5-carbonyl)-2,4-difluoro-phenyl]-amide]					
< 5.00	< 5.00	< 5.00	< 5.00	< 5.00	< 5.00			CCCS(=O)(=O)Nc1ccc(F)c(C(=O)c2c[nH]c3ncnc(Nc4ccccn4)c23)c1F [P-1077, Propane-1-sulfonic acid {2,4-difluoro-3-[4-(pyridin-2-ylamino)-7H-pyrrolo[2,3-d]pyrimidine-5-carbonyl]-phenyl}-amide]		H (high solubility if the threshold concentration is >250 μm)	L (low solubility if the threshold concentration is <31.3 μM)	L (low solubility if the threshold concentration is <31.3 μM)	L (low solubility if the threshold concentration is <31.3 μM)
> 5.30		< 5.00	< 5.00	< 5.00	< 5.00	5.00 to 5.30		CCCS(=O)(=O)Nc1ccc(F)c(C(=O)c2c[nH]c3ncnc(Nc4cccnc4)c23)c1F [P-1078, Propane-1-sulfonic acid {2,4-difluoro-3-[4-(pyridin-3-ylamino)-7H-pyrrolo[2,3-d]pyrimidine-5-carbonyl]-phenyl}-amide]		M (moderate solubility if the threshold concentration is 31.3 μM to 250 μM)	L (low solubility if the threshold concentration is <31.3 μM)	L (low solubility if the threshold concentration is <31.3 μM)	L (low solubility if the threshold concentration is <31.3 μM)
< 5.00	< 5.00	< 5.00	< 5.00	< 5.00	< 5.00			CCCS(=O)(=O)Nc1ccc(F)c(C(=O)c2c[nH]c3ncnc(NCC4CC4)c23)c1F [P-1079, Propane-1-sulfonic acid {3-[4-(cyclopropylmethyl-amino)-7H-pyrrolo[2,3-d]pyrimidine-5-carbonyl]-2,4-difluoro-phenyl}-amide]		M (moderate solubility if the threshold concentration is 31.3 μM to 250 μM)	L (low solubility if the threshold concentration is <31.3 μM)	L (low solubility if the threshold concentration is <31.3 μM)	L (low solubility if the threshold concentration is <31.3 μM)
< 5.00	< 5.00	< 5.00	< 5.00	< 5.00	< 5.00			CCCS(=O)(=O)Nc1ccc(F)c(C(=O)c2c[nH]c3ncnc(NC4CCCC4)c23)c1F [P-1081, Propane-1-sulfonic acid [3-(4-cyclopentylamino-7H-pyrrolo[2,3-d]pyrimidine-5-carbonyl)-2,4-difluoro-phenyl]-amide]		H (high solubility if the threshold concentration is >250 μm)	L (low solubility if the threshold concentration is <31.3 μM)	L (low solubility if the threshold concentration is <31.3 μM)	L (low solubility if the threshold concentration is <31.3 μM)
< 5.00	< 5.00	< 5.00	< 5.00	< 5.00	< 5.00			CCCS(=O)(=O)Nc1ccc(F)c(C(=O)c2c[nH]c3ncnc(Nc4ccc(OC)nc4)c23)c1F [P-1090, Propane-1-sulfonic acid {2,4-difluoro-3-[4-(6-methoxy-pyridin-3-ylamino)-7H-pyrrolo[2,3-d]pyrimidine-5-carbonyl]-phenyl}-amide]					
